# Measured values published in patent US20250230193A1, “CYCLIC COMPOUND HAVING SELECTIVE KRAS INHIBITORY EFFECT ON HRAS AND NRAS” (CHUGAI SEIYAKU KABUSHIKI KAISHA, priority 2022, published 2025).
# *1 amine or outer side, *2 acyl side, *3 side chain or, on linkers, in order; H or OH if unused. Where a SMILES comes first, the peptide text is derived from it. Bridges are numbered along the chain shown (N, C = ends). [ ]: non-standard residue; d: D form. The star is where a group is joined. hPhe(3-Cl-4-CF3) = N[C@@H](CCc1ccc(C(F)(F)F)c(Cl)c1)C(=O)O; NPrPhe(4-CF3) = CCCN[C@@H](Cc1ccc(C(F)(F)F)cc1)C(=O)O; X29 = Cc1ccc(C[C@@H](C(=O)[*:2])N(CC2CCCC2)[*:1])cc1; NMeGly(cPent) = CN[C@H](C(=O)O)C1CCCC1; Pro(4,4-F2) = O=C(O)[C@@H]1CC(F)(F)CN1; Hyp = O=C(O)[C@@H]1C[C@@H](O)CN1; NMeD = CN[C@@H](CC(=O)O)C(=O)O; NMeL = CN[C@@H](CC(C)C)C(=O)O; Morpholide = C1CN(*)CCO1; NMeA = CN[C@@H](C)C(=O)O; Ac5c = NC1(C(=O)O)CCCC1; Aze = O=C(O)[C@@H]1CCN1; Ac4c = NC1(C(=O)O)CCC1; Sar = CNCC(=O)O
# Tests used:
# [1] = biological target: GDP-bound NRAS wild-type protein (Homo sapiens, UniProt P01111); experiment: Binding to NRAS by surface plasmon resonance (SPR), Single Cycle Kinetics; conditions: for NRAS/KRAS (ratio of KD value with respect to NRAS to KD value with respect to KRAS): GDP-bound NRAS wild-type vs GDP-bound KRAS wild-type
# Chain of GDP-bound NRAS wild-type protein (P01111 whole entry): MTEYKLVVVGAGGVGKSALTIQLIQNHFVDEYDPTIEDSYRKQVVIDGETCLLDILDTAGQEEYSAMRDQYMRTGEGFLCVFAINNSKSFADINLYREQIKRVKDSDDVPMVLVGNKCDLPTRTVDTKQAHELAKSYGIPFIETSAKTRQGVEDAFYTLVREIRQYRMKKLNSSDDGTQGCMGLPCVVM
# [2] = biological target: GDP-bound HRAS wild-type protein (Homo sapiens, UniProt P01112); experiment: Binding to HRAS by surface plasmon resonance (SPR), Single Cycle Kinetics; conditions: for HRAS/KRAS (ratio of KD value with respect to HRAS to KD value with respect to KRAS): GDP-bound HRAS wild-type vs GDP-bound KRAS wild-type
# Chain of GDP-bound HRAS wild-type protein (P01112 whole entry): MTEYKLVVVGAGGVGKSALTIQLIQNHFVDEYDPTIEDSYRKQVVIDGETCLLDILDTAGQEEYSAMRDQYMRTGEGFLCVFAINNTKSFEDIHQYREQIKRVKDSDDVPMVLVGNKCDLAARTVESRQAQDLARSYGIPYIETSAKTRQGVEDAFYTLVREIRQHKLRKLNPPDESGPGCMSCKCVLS
structure (smiles),measurement,setting,value
CCC[C@H]1C(=O)N[C@@H](CC(C)C)C(=O)N(CCOC)CC(=O)N(C)[C@H]2C/C=C\CCN(C2=O)[C@@H](Cc2ccc(C)cc2)C(=O)N(C)CC(=O)N[C@@H](CCc2ccc(C(F)(F)F)c(OC)c2)C(=O)N2C[C@H](OCC)C[C@H]2C(=O)NC2(CC(C)(C)C2)C(=O)N(C)[C@@H](C2CCCC2)C(=O)N(C)[C@H](C(=O)N(C)C)CC(=O)N1C [PP2522],NRAS/KRAS (ratio of KD value with respect to GDP-bound NRAS wild-type protein to KD value with respect to KRAS),[1]; class symbols,B (a compound having 3 or more and less than 10 is denoted as B)
same,HRAS/KRAS (ratio of KD value with respect to GDP-bound HRAS wild-type protein to KD value with respect to KRAS),[2]; class symbols,B (a compound having 3 or more and less than 10 is denoted as B)
CC[C@H](C)[C@@H]1NC(=O)[C@H](CC(C)C)N(C)C(=O)C[C@@H](C(=O)N2CCOCC2)N(C)C(=O)[C@H](C2CCCC2)N(C)C(=O)C2(CCCC2)NC(=O)[C@@H]2CCCN2C(=O)[C@H](CCc2ccc(C(F)(F)F)c(Cl)c2)NC(=O)CN(C)C(=O)[C@H](Cc2ccc(C)cc2)N(CC2CCCC2)C(=O)CN(C)C(=O)CN(C)C1=O [PP0096] ([NMeL]I[Sar][Sar][X29][Sar][hPhe(3-Cl-4-CF3)]P[Ac5c][NMeGly(cPent)][NMeD]-Morpholide; lactam N-11),NRAS/KRAS (ratio of KD for GDP-bound NRAS wild-type to KD for KRAS),[1]; SPR,C (A compound having a KD ratio of 0.1 or more and less than 3 is denoted as C)
same,HRAS/KRAS (ratio of KD for GDP-bound HRAS wild-type to KD for KRAS),[2]; SPR,C (A compound having a KD ratio of 0.1 or more and less than 3 is denoted as C)
"CCCN1C(=O)[C@@H]2CCN2C(=O)[C@H](C)N(C)C(=O)[C@H]([C@@H](C)CC)NC(=O)[C@H](CC(C)C)N(C)C(=O)C[C@@H](C(=O)N(C)C)N(C)C(=O)[C@H](C2CCCC2)N(C)C(=O)C2(CCC2)NC(=O)[C@@H]2CC(F)(F)CN2C(=O)[C@H](CCc2ccc(C(F)(F)F)c(Cl)c2)NC(=O)CN(C)C(=O)[C@@H]1Cc1ccc(C(F)(F)F)cc1 [PP0437] ([NMeL]I[NMeA][Aze][NPrPhe(4-CF3)][Sar][hPhe(3-Cl-4-CF3)][Pro(4,4-F2)][Ac4c][NMeGly(cPent)][NMeD]-NMe2; lactam N-11)",NRAS/KRAS (ratio of KD value with respect to GDP-bound NRAS wild-type protein to KD value with respect to KRAS),[1]; SPR,C (A compound having a KD ratio of 0.1 or more and less than 3 is denoted as C)
same,HRAS/KRAS (ratio of KD value with respect to GDP-bound HRAS wild-type protein to KD value with respect to KRAS),[2]; SPR,B (a compound having 3 or more and less than 10 is denoted as B)
CCCN1C(=O)CN(C)C(=O)[C@@H]2CCN2C(=O)[C@H]([C@@H](C)CC)NC(=O)[C@H](CC(C)C)N(C)C(=O)C[C@@H](C(=O)N2CCOCC2)NC(=O)[C@H](C2CCCC2)N(C)C(=O)C2(CCC2)NC(=O)[C@@H]2C[C@@H](OCC)CN2C(=O)[C@H](CCc2ccc(C(F)(F)F)c(Cl)c2)NC(=O)CN(C)C(=O)[C@@H]1Cc1ccc(C(F)(F)F)cc1 [PP0342] ([NMeL]I[Aze][Sar][NPrPhe(4-CF3)][Sar][hPhe(3-Cl-4-CF3)][Hyp](Et)[Ac4c][NMeGly(cPent)]D-Morpholide; lactam N-11),NRAS/KRAS (ratio of KD for GDP-bound NRAS wild-type to KD for KRAS),[1]; SPR,B (a compound having 3 or more and less than 10 is denoted as B)
same,HRAS/KRAS (ratio of KD for GDP-bound HRAS wild-type to KD for KRAS),[2]; SPR,B (a compound having 3 or more and less than 10 is denoted as B)
CCC[C@H]1C(=O)N[C@@H]([C@@H](C)CC)C(=O)N(C2CC2)CC(=O)N(C)[C@H]2C/C=C\CCN(C2=O)[C@@H](CC2CCCCC2)C(=O)N(C)CC(=O)N[C@@H](CCc2ccc(C(F)(F)F)c(OC)c2)C(=O)N2C[C@@H](C)C[C@H]2C(=O)N(C)C2(CCC2)C(=O)N(C)[C@@H](C2CCCC2)C(=O)N(C)[C@H](C(=O)N(C)C)CC(=O)N1C [PP2372],NRAS/KRAS (ratio of KD value with respect to NRAS to KD value with respect to KRAS),[1]; SPR,A (a compound having 10 or more and less than 20 is denoted as A)
same,HRAS/KRAS (ratio of KD value with respect to HRAS to KD value with respect to KRAS),[2]; SPR,B (a compound having 3 or more and less than 10 is denoted as B)
CCO[C@@H]1C[C@H]2C(=O)NC3(CCC3)C(=O)N(C)[C@@H](C3CCCC3)C(=O)N(C)[C@H](C(=O)N(C)C)CC(=O)N(C)[C@@H](CC)C(=O)N[C@@H]([C@@H](C)CC)C(=O)N(C)CC(=O)N(C)[C@H]3CCCCCN(C3=O)[C@@H](Cc3ccc(F)c(C)c3)C(=O)N(C)CC(=O)N[C@@H](CCc3cc(F)c(C(F)(F)F)c(F)c3)C(=O)N2C1 [PP0912],NRAS/KRAS (ratio of KD value with respect to NRAS to KD value with respect to KRAS),"[1]; KD ratio, SPR",B (a compound having 3 or more and less than 10 is denoted as B)
same,HRAS/KRAS (ratio of KD value with respect to HRAS to KD value with respect to KRAS),"[2]; KD ratio, SPR",B (a compound having 3 or more and less than 10 is denoted as B)
C=CCN1CC(=O)N(C)[C@H]2C/C=C\CCN(C2=O)[C@@H](Cc2ccc(C(F)(F)F)cc2)C(=O)N(C)CC(=O)N[C@@H](CCc2ccc(C(F)(F)F)c(OC)c2)C(=O)N2C[C@H](OCC)C[C@H]2C(=O)NC2(CC(C)(C)C2)C(=O)N(C)[C@@H](C2CCCC2)C(=O)N(C)[C@H](C(=O)N(C)C)CC(=O)N(C)[C@@H](CCC)C(=O)N[C@@H]([C@@H](C)CC)C1=O [PP2106],NRAS/KRAS (ratio of KD value with respect to NRAS to KD value with respect to KRAS),[1]; SPR,A (a compound having 10 or more and less than 20 is denoted as A)
same,HRAS/KRAS (ratio of KD value with respect to HRAS to KD value with respect to KRAS),[2]; SPR,A (a compound having 10 or more and less than 20 is denoted as A)
